Results: paper PMC2746433 (Biochemistry, 2009)
Like-named read-outs stand apart in the source and are kept apart here. Residues, ends and D or L forms follow the SMILES beside them. No end group written: not given here. fluorescein = fluorescein (label on the N-terminus)

Legend:
[1] = molecular target: ExoI/SSB/ssDNA ternary complex (Escherichia coli, UniProt P04995); experiment: Exonuclease assay: inhibition of SSB-stimulated ExoI nuclease activity; assay type: biochemical, E. coli
E. coli ExoI = E. coli ExoI (Escherichia coli, UniProt P04995); experiment: Peptide competition-binding assay
[2] = molecular target: T1, E. coli Exonuclease I (E. coli) (UniProt P04995); experiment: fluorescence polarisation
T1 sequence: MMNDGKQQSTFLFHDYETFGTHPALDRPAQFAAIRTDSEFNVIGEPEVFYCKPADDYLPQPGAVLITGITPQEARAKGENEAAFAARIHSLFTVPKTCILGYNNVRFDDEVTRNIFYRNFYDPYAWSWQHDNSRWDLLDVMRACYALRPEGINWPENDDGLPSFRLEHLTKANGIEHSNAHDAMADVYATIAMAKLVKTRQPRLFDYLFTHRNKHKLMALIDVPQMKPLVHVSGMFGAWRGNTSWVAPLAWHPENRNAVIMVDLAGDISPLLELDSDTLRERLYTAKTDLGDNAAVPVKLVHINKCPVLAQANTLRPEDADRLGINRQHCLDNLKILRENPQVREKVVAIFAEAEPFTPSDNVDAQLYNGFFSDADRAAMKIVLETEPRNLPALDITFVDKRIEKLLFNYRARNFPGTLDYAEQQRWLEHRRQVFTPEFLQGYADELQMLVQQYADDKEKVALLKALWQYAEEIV

E. coli Exonuclease I [3] = molecular target: T2, E. coli Exonuclease I (E. coli, UniProt P04995 1-475); experiment: fluorescence polarisation
T2 sequence (looked up): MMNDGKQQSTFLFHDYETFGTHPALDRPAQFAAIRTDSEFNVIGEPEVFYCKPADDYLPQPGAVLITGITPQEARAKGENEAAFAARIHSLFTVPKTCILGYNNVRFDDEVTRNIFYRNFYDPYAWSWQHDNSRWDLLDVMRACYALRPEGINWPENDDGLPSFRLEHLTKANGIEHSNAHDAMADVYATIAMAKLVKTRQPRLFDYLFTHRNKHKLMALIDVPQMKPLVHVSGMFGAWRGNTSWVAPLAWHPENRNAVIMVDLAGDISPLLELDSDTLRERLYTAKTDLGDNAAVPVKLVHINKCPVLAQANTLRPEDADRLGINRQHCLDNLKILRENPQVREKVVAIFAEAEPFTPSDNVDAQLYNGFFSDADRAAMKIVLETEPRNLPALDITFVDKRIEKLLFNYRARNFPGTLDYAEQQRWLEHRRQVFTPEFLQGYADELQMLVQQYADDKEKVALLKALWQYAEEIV

E. coli Exonuclease I [4] = molecular target: T2, E. coli Exonuclease I; experiment: fluorescence polarisation; remark: listed apart in the source
E. coli Exonuclease I [5] = molecular target: T2, E. coli Exonuclease I

WDDDIPF [WDDDIPF]
IC50 [1]: ~40 µM

WFDDDIPF [WFDDDIPF]
IC50 [1]: ~10 µM

WDIPF [WDIPF, Trp-Asp-Ile-Pro-Phe]
IC50 [1]: > 100 µM

WMAFDDDIPF [WMAFDDDIPF]
IC50 (E. coli ExoI): 11.6 ± 0.9 µM | IC50 [1]: ~1 µM

WMDFADDIPF [WMDFADDIPF]
IC50 (E. coli ExoI): 8.5 ± 0.3 µM | IC50 [1]: ~1 µM

WDFDDDIPF [WDFDDDIPF]
IC50 [1]: ~1 µM

SSB-Ct Phe-to-Tyr variant peptide …
IC50 [2]: 382 µM | K (bind) (apparent inhibitor dissociation constant) [2]: 79 µM

WMDFDADIPF [WMDFDADIPF]
IC50 (E. coli ExoI): 6.7 ± 0.3 µM | IC50 [1]: ~1 µM

WMDFDDDIPF [WMDFDDDIPF, Trp-Met-Asp-Phe-Asp-Asp-Asp-Ile-Pro-Phe]
IC50 [1]: ~1 µM

WDDIPF [WDDIPF]
IC50 [1]: ~40 µM

WMDFDDD [WMDFDDD]
IC50 (E. coli ExoI): > 1000 µM | IC50 [1]: ~40 µM

WMDFDDAIPF [WMDFDDAIPF]
IC50 (E. coli ExoI): 9.3 ± 0.3 µM | IC50 [1]: ~1 µM

CC[C@H](C)[C@H](NC(=O)[C@@H](N)Cc1c[nH]c2ccccc12)C(=O)N1CCC[C@H]1C(=O)N[C@@H](Cc1ccccc1)C(=O)O [WIPF] (H-WIPF-OH)
IC50 (E. coli ExoI): 252 ± 12 µM | IC50 [1]: > 100 µM

SSB-Ct Pro-to-Ser variant peptide …
IC50 [2]: 52.9 µM | K (bind) (apparent inhibitor dissociation constant) [2]: 10.8 µM

WMDFDDDISF [WMDFDDDISF]
IC50 (E. coli ExoI): 52.9 ± 3.5 µM | IC50 [1]: ~10 µM

WMDFDDDI [WMDFDDDI]
IC50 (E. coli ExoI): > 1000 µM | IC50 [1]: ~40 µM

WMDFDDDIP [WMDFDDDIP]
IC50 (E. coli ExoI): > 1000 µM | IC50 [1]: ~40 µM

WMAFAAAIPF [WMAFAAAIPF]
IC50 (E. coli ExoI): 169 ± 15 µM | IC50 [1]: ~20 µM

WMDFDDDIPY [WMDFDDDIPY]
IC50 (E. coli ExoI): 382 ± 41 µM | IC50 [1]: ~10 µM

WFDDDIPF [SSB-Ct N-terminal truncation peptide WFDDDIPF]
IC50 (E. coli Exonuclease I [3]): 12.1 ± 0.7 µM | K_(bind) (apparent inhibitor dissociation constant) (E. coli Exonuclease I [3]): 2.3 ± 0.1 µM

WMDFDDDIPF [SSB-Ct peptide WMDFDDDIPF (wild type)]
IC50 (E. coli Exonuclease I [3]): 5.2 ± 0.2 µM | K_(bind) (apparent inhibitor dissociation constant) (E. coli Exonuclease I [3]): 0.9 ± 0.1 µM

fluorescein-WMDFDDDIPF [F-SSB-Ct (SSB-Ct with an N-terminal fluorescein)]
Kd (E. coli Exonuclease I [4]): 0.261 ± 0.022 µM | Kd (E. coli Exonuclease I [5]): 0.178 ± 0.01 µM

WDIPF [SSB-Ct N-terminal truncation peptide WDIPF]
IC50 (E. coli Exonuclease I [3]): 79.1 ± 2.9 µM | K_(bind) (apparent inhibitor dissociation constant) (E. coli Exonuclease I [3]): 16.2 ± 0.6 µM

WMDFDDDI [SSB-Ct C-terminal truncation peptide WMDFDDDI]
K_(bind) (apparent inhibitor dissociation constant) (E. coli Exonuclease I [3]): > 200 µM

WMDFDDDIP [SSB-Ct C-terminal truncation peptide WMDFDDDIP]
K_(bind) (apparent inhibitor dissociation constant) (E. coli Exonuclease I [3]): > 200 µM

WDDDIPF [SSB-Ct N-terminal truncation peptide WDDDIPF]
IC50 (E. coli Exonuclease I [3]): 25.3 ± 0.9 µM | K_(bind) (apparent inhibitor dissociation constant) (E. coli Exonuclease I [3]): 5.1 ± 0.8 µM

WMDFDDD [SSB-Ct C-terminal truncation peptide WMDFDDD]
K_(bind) (apparent inhibitor dissociation constant) (E. coli Exonuclease I [3]): > 200 µM

WDDIPF [SSB-Ct N-terminal truncation peptide WDDIPF]
IC50 (E. coli Exonuclease I [3]): 33.5 ± 2.6 µM | K_(bind) (apparent inhibitor dissociation constant) (E. coli Exonuclease I [3]): 6.8 ± 0.1 µM

WIPF [SSB-Ct N-terminal truncation peptide WIPF]
K (bind) (apparent inhibitor dissociation constant) [2]: 52 µM

WDFDDDIPF [SSB-Ct N-terminal truncation peptide WDFDDDIPF]
IC50 (E. coli Exonuclease I [3]): 4.3 ± 0.1 µM | K_(bind) (apparent inhibitor dissociation constant) (E. coli Exonuclease I [3]): 0.7 ± 0.1 µM
